# Test results taken from article doi:10.1101/362293v1 (biorxiv, 2018).
# Substitutions are numbered along the chain they refer to. pKd, pKi: −log10 of the molar value.
# Legend:
# [1] = biological target: T1, CobB (Escherichia coli, UniProt P75960, R8A); test: isothermal titration calorimetry; assay type: binding
# T1 sequence (P75960 1-279 R8A): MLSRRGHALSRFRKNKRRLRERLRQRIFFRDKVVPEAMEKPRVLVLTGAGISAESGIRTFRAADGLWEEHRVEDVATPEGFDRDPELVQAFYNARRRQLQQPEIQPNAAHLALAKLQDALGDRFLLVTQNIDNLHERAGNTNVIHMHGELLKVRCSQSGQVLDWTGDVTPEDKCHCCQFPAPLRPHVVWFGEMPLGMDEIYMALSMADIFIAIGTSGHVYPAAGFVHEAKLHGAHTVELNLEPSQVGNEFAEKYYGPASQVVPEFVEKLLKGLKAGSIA
# [2] = biological target: T2, CobB (Escherichia coli, UniProt P75960); test: deacetylation of an acetylated peptide, HPLC; assay type: biochemical
# T2 sequence (P75960 1-279): T1 sequence (P75960 1-279 R8A) with A8R
# [3] = biological target: T3, CobB (Escherichia coli, UniProt P75960, E21A); test: isothermal titration calorimetry; assay type: binding
# T3 sequence (P75960 1-279 E21A): T1 sequence (P75960 1-279 R8A) with A8R, E21A
# [4] = biological target: T4, CobB (Escherichia coli, UniProt P75960, R17A); test: isothermal titration calorimetry; assay type: binding
# T4 sequence (P75960 1-279 R17A): T1 sequence (P75960 1-279 R8A) with A8R, R17A
# [5] = biological target: T5, S. typhimurium CobB; CobB^S. typhimurium (Salmonella enterica, UniProt P0A2F2); test: affinity measurement, method not given; assay type: binding
# T5 sequence (P0A2F2 1-273): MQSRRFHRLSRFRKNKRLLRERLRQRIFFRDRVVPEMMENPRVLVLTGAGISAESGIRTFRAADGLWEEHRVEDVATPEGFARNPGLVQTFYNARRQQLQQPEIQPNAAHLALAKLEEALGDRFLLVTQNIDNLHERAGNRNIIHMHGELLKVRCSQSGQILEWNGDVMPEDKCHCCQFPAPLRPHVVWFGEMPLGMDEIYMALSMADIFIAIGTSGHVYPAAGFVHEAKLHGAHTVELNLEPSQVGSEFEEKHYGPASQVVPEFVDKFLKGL
# [6] = biological target: T2, CobB; test: isothermal titration calorimetry; assay type: binding
structure (smiles),measurement,setting,value
Nc1nc2c(ncn2[C@@H]2O[C@@H]3CO[P@](=O)(O)O[C@H]4[C@@H](O)[C@H](n5cnc6c(=O)[nH]c(N)nc65)O[C@@H]4CO[P@](=O)(O)O[C@H]3[C@H]2O)c(=O)[nH]1 [c-di-GMP],pKd,[1],2.74
same,pKi,[2],4.49
same,pKd,[3],3.49
same,pKd,[4],2.80
same,pKd,[5],4.81
same,pKd,[6],4.67
